{"source": "paper PMC11255867", "about": "(Protein Science : A Publication of the Protein Society, 2024)", "target": "T1, Gaussia luciferase (GLuc) (Gaussia princeps (in: crustaceans), UniProt Q9BLZ2)", "T1 sequence (Q9BLZ2 18-185)": "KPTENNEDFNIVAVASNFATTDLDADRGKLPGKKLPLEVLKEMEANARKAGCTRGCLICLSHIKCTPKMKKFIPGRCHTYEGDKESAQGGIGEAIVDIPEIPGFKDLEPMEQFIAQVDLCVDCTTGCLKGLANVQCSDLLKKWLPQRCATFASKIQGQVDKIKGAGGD", "experiment": "SDS-PAGE adduct formation", "assay_type": "biochemical", "details": "suicide inhibitor, covalent; oxidized without light; 20-fold molar excess, up to 24 h; 50 mM Tris-HCl pH 8.0"}
{"smiles": "O=c1c(Cc2ccco2)nc2c(Cc3ccccc3)[nH]c(-c3ccccc3)cn1-2", "note": "[furimazine]", "values": [{"measurement": "SDS-PAGE adduct formation; loss of luminescence with coelenterazine", "value": "FRZ is a suicide inhibitor of GLuc as it does not produce light with GLuc"}]}
